Structures can show the parent of a compound that is named as a salt.
Assays:
TLR7 = target: T1, TLR7 (Homo sapiens, UniProt Q9NYK1); assay: HEK/293 TLR7 Cell Assay; assay type: cell-based; conditions: TLR7/NFKb HEK cells, R848 agonist 10 uM final concentration, Steady-Glo readout; read-out: TLR7 potency
T1 construct: expressed in transfected cells; host or cells: HEK/293 cells carrying TLR7 and an NF-kB luciferase reporter
T1 sequence (Q9NYK1 27-1049): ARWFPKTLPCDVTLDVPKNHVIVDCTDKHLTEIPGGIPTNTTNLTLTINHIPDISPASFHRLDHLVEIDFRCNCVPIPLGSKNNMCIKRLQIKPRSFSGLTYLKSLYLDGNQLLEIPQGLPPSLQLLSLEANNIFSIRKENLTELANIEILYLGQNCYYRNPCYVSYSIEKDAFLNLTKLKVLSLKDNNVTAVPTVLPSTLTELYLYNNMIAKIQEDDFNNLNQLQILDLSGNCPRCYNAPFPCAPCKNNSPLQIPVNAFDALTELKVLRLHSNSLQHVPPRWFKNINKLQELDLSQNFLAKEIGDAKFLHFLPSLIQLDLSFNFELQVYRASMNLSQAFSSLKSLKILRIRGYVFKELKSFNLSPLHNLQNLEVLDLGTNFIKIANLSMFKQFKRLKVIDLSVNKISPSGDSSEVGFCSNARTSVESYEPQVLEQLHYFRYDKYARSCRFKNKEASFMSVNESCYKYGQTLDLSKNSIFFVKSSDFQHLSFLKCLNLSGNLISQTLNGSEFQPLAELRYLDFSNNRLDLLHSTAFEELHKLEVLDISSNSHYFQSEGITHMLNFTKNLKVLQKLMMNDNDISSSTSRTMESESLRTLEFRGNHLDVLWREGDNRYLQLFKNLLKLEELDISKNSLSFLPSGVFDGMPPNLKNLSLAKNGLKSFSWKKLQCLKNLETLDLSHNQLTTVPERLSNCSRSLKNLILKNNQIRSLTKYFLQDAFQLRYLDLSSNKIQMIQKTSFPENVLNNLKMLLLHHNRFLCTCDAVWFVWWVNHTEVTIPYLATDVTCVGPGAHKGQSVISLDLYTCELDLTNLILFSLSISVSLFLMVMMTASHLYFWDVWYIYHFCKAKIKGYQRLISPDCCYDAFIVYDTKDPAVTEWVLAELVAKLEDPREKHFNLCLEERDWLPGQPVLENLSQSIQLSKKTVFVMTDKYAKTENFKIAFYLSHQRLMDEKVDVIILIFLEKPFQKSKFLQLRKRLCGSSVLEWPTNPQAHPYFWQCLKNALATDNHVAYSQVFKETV
Procedure, shortened: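 TLR7/NF-κB reporter HEK293 cells, 5000/well, cultured 24 h, then preincubated 30 min with compound before R848 agonist (10 uM final). After 5 h stimulation, Steady-Glo luciferase luminescence read.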

TLR8 = target: T2, TLR8 (Homo sapiens, UniProt Q9NR97); assay: HEK/293 TLR8 Cell Assay; assay type: cell-based; conditions: HEK cells, R848 agonist 30 uM final concentration, Steady-Glo readout; read-out: TLR8 potency
T2 construct: expressed in transfected cells; host or cells: HEK/293 reporter cells (NF-kB luciferase)
T2 sequence (Q9NR97 27-1041): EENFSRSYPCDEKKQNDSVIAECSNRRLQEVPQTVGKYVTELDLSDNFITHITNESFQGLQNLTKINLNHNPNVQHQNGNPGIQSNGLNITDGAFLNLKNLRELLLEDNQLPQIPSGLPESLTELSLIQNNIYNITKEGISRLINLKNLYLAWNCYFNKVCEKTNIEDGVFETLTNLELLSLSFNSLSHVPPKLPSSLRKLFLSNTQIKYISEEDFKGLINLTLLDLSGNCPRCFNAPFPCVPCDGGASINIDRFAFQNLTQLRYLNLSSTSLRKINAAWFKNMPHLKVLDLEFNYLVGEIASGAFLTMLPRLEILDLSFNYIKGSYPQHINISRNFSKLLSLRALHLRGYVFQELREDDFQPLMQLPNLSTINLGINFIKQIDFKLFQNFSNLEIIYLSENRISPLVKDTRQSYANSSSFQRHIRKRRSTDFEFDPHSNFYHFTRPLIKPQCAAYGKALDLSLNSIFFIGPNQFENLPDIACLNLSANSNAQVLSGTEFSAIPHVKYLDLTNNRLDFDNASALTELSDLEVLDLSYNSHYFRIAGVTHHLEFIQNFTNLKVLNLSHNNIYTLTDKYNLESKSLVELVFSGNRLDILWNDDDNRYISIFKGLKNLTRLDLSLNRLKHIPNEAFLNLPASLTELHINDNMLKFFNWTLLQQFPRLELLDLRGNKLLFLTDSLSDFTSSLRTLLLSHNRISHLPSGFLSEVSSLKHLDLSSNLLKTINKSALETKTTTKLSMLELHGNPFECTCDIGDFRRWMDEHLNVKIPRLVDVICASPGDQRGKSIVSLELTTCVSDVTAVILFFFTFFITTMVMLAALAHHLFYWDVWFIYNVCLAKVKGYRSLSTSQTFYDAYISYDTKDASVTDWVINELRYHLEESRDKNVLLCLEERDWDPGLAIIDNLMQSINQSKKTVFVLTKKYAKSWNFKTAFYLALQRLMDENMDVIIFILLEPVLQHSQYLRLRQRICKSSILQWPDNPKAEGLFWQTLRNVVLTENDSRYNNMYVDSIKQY

Row | IC50 (TLR7) [nM] | IC50 (TLR8) [nM] | Compound
1 | < 75 | > 150 | C[C@@H]1CN(c2ccc(C#N)c3nccnc23)C[C@H](CN2CC(O)C2)O1 [Example 216, 8-[(2S,6R)-2-(3-Hydroxy-azetidin-1-ylmethyl)-6-methyl-morpholin-4-yl]-quinoxaline-5-carbonitrile]
2 | < 75 | > 150 | C[C@@H]1CN(c2ccc(C#N)c3nccnc23)C[C@H](CN2CC(C)(O)C2)O1 [Example 218, 8-[(2S,6R)-2-(3-Hydroxy-3-methyl-azetidin-1-ylmethyl)-6-methyl-morpholin-4-yl]-quinoxaline-5-carbonitrile]
3 | 75 to 150 | > 150 | C[C@@H]1CN(c2ccc(C#N)c3nccnc23)C[C@H](CN2CCC(O)CC2)O1 [Example 219, 8-[(2S,6R)-2-(4-Hydroxy-piperidin-1-ylmethyl)-6-methyl-morpholin-4-yl]-quinoxaline-5-carbonitrile]
4 | < 75 | > 150 | C[C@@H]1CN(c2ccc(C#N)c3nccnc23)C[C@H](CN2CC[C@H](O)C2)O1 [Example 220, 8-[(2S,6R)-2-((S)-3-Hydroxy-pyrrolidin-1-ylmethyl)-6-methyl-morpholin-4-yl]-quinoxaline-5-carbonitrile]
5 | < 75 | > 150 | C[C@@H]1CN(c2ccc(C#N)c3nccnc23)C[C@H](CN2CC[C@@H](O)C2)O1 [Example 221, 8-[(2S,6R)-2-((R)-3-Hydroxy-pyrrolidin-1-ylmethyl)-6-methyl-morpholin-4-yl]-quinoxaline-5-carbonitrile]
6 | < 75 | < 75 | Cc1c(F)cc(N2C[C@H](CN3CCC(N4CCCC4)CC3)O[C@H](C)C2)c2cccnc12 [Example 223, 7-Fluoro-8-methyl-5-[(2R,6S)-2-methyl-6-(4-pyrrolidin-1-yl-piperidin-1-ylmethyl)-morpholin-4-yl]-quinoline]
7 | < 75 | > 150 | C[C@@H]1CN(c2ccc(C#N)c3ncncc23)C[C@H](CN2CCN(C)CC2)O1 [Example 224, 5-[(2R,6S)-2-Methyl-6-(4-methyl-piperazin-1-ylmethyl)-morpholin-4-yl]-quinazoline-8-carbonitrile]

Continued, molecule first:

Row | Compound | IC50 (TLR7) [nM] | IC50 (TLR8) [nM]
8 | C[C@H]1C[C@@H](NS(=O)(=O)NC(=O)CN2CCOCC2)CN(c2ccc(C(F)(F)F)c3ncccc23)C1 [Example 203, N-{[(3R,5S)-5-methyl-1-[8-(trifluoromethyl)quinolin-5-yl]piperidin-3-yl]sulfamoyl}-2-(morpholin-4-yl)acetamide] | 75 to 150 | < 75
9 | C[C@H]1C[C@@H](NC(=O)[C@@H]2CCNC2)CN(c2ccc(C(F)(F)F)c3ncccc23)C1 [Example 204, (3R)—N-[(3R,5S)-5-methyl-1-[8-(trifluoromethyl)quinolin-5-yl]piperidin-3-yl]pyrrolidine-3-carboxamide] | < 75 | < 75
10 | C[C@H]1C[C@@H](NC(=O)C2(F)CCNC2)CN(c2ccc(C(F)(F)F)c3ncccc23)C1 (stereo partly drawn) [Example 205, 3-fluoro-N-[(3R,5S)-5-methyl-1-[8-(trifluoromethyl)quinolin-5-yl]piperidin-3-yl]pyrrolidine-3-carboxamide] | < 75 | < 75
11 | N#Cc1ccc(N2C[C@H](NC(=O)C3(F)CCNC3)C[C@H](C(F)(F)F)C2)c2cccnc12 (stereo partly drawn) [Example 206, N-[(3R,5S)-1-(8-cyanoquinolin-5-yl)-5-(trifluoromethyl)piperidin-3-yl]-3-fluoropyrrolidine-3-carboxamide] | 75 to 150 | 75 to 150
12 | C[C@H]1C[C@@H](NC(=O)CC2CS(=O)(=O)C2)CN(c2ccc(C#N)c3nccnc23)C1 [Example 207, N-[(3R,5S)-1-(8-cyanoquinoxalin-5-yl)-5-methylpiperidin-3-yl]-2-(1,1-dioxo-1λ^6-thietan-3-yl)acetamide] | > 150 | 75 to 150
13 | C[C@H]1C[C@@H](NC(=O)[C@@H]2COCCN2)CN(c2ccc(C#N)c3nccnc23)C1 [Example 208, (3S)—N-[(3R,5S)-1-(8-cyanoquinoxalin-5-yl)-5-methylpiperidin-3-yl]morpholine-3-carboxamide] | 75 to 150 | < 75
14 | C[C@H]1C[C@@H](NC(=O)[C@H]2COCCN2)CN(c2ccc(C#N)c3nccnc23)C1 [Example 209, (3R)—N-[(3R,5S)-1-(8-cyanoquinoxalin-5-yl)-5-methylpiperidin-3-yl]morpholine-3-carboxamide] | 75 to 150 | < 75
15 | C[C@H]1C[C@@H](NC(=O)C[C@H](O)CN(C)C)CN(c2ccc(C#N)c3nccnc23)C1 [Example 210, (3S)—N-[(3R,5S)-1-(8-cyanoquinoxalin-5-yl)-5-methylpiperidin-3-yl]-4-(dimethylamino)-3-hydroxybutanamide] | < 75 | < 75
16 | C[C@H]1C[C@@H](NC(=O)C[C@@H](O)CN(C)C)CN(c2ccc(C#N)c3nccnc23)C1 [Example 211, (3R)—N-[(3R,5S)-1-(8-cyanoquinoxalin-5-yl)-5-methylpiperidin-3-yl]-4-(dimethylamino)-3-hydroxybutanamide] | < 75 | < 75
17 | C[C@@H]1CN(c2ccc(C#N)c3nccnc23)C[C@H](CN2CCC(F)(F)C2)O1 [Example 215, 8-[(2S,6R)-2-(3,3-Difluoro-pyrrolidin-1-ylmethyl)-6-methyl-morpholin-4-yl]-quinoxaline-5-carbonitrile] | 75 to 150 | > 150
18 | CCN(CC)C1CCN(C[C@H]2CN(c3ccc(C#N)c4nccnc34)C[C@@H](C)O2)CC1 [Example 217, 8-[(2S,6R)-2-(4-Diethylamino-piperidin-1-ylmethyl)-6-methyl-morpholin-4-yl]-quinoxaline-5-carbonitrile] | < 75 | < 75
19 | C[C@@H]1CN(c2ccc(C#N)c3nccnc23)C[C@H](CN2CCC(C(C)(C)O)C2)O1 (stereo partly drawn) [Example 222, 8-{(2S,6R)-2-[3-(1-Hydroxy-1-methyl-ethyl)-pyrrolidin-1-ylmethyl]-6-methyl-morpholin-4-yl}-quinoxaline-5-carbonitrile] | < 75 | 75 to 150
20 | C[C@@H]1CN(c2ccc(C#N)c3nccnc23)C[C@H](CSC2CNC2)O1 [Example 225, 8-[(2R,6R)-2-(Azetidin-3-ylsulfanylmethyl)-6-methyl-morpholin-4-yl]-quinoxaline-5-carbonitrile hydrochloride] | < 75 | < 75
21 | C[C@@H]1CN(c2ccc(C#N)c3nccnc23)C[C@H](CSC2CN(CC(C)(C)O)C2)O1 [Example 226, 8-{(2R,6R)-2-[1-(2-Hydroxy-2-methyl-propyl)-azetidin-3-ylsulfanylmethyl]-6-methyl-morpholin-4-yl}-quinoxaline-5-carbonitrile] | < 75 | < 75

— patent publication US20210300940A1 (Merck Patent GmbH, priority 2018, published 2021)
